{"source": "patent US20100221758A1", "about": "“Sensors for Measuring Contaminants” (ECI Biotech Inc., priority 2007, published 2010)", "key": {"[1]": {"system": "thioredoxin reductase (trxB)", "experiment": "Thioredoxin reductase (trxB) detection assay", "format": "biochemical, Mycoplasma hyorhinis", "protocol": "Other fluorescent probes such as BODIPY®FL L-cystine and the 2′,7′-difluoro-4′-(2-(5-((dimethyl amino phenyl)azo)pyridyl)dithiopropionyl aminomethyl)fluorescein (abbreviated as DFDMAP-fluorescein) were studied to improve the sensitivity and the signal-to-noise ratio of the assay. Assays were performed with 40 mM Tris pH 7.2, 100 mM NaCl±detergent.\nA detergent lysis buffer procedure that would hydrolyze the simple Mycoplasma cell membranes but not lyse the tissue culture cells was needed. Methyl-6-O—(N-heptylcarbamoyl)-α-D-glucopyranoside (HECAMEG) is a preferred detergent.\nAn alternative substrate to produce the thioredoxin reductase signal was to measure the release of horseradish peroxidase (HRP) from a chromatography bead tethered with the heterobifunctional crosslinking reagent 3,3′-dithiobis[sulfosuccinimidylpropionate] (DTSSP)."}, "[2]": {"system": "reductases produced by the bacteria", "experiment": "Dye decolorization by bacterial culture supernatants", "format": "biochemical", "details": "bacterial culture supernatant, about 18 hours incubation", "protocol": "Each well was incubated with 10 μg of reactive black 5 plus 190 μl of culture supernatant from the following bacterium: E. coli, E. faecalis, S. aureus, P. aeruginosa, S. pyogenes, and S. marcescens. […] The decolorization is indicative of reductases produced by the bacteria.\nReductase activity can be measured through a Azo dye that gets decolorized by the release of reductases from many bacterial cells. […] A sensor placed on the bottom of a culture dish, buffer container or even on a swab for measuring the presence of mycoplasma in human fluids can be used to ascertain bacterial contamination or infection. The benefit of a simple azo dye sensor is low cost although it may not specifically detect different bacteria. […] Each well was incubated with 10 μg of reactive black 5 plus 190 μl of filtered culture supernatant from the following bacterium: E. coli, E. faecalis, S. aureus, P. aeruginosa, S. pyogenes, and S. marcescens. […] The decolorization is indicative of reductases produced by the bacteria."}, "E. coli": {"system": "E. coli", "experiment": "Thioredoxin reductase cross-reactivity with DTNB substrate", "format": "biochemical", "details": "up to 10^6 CFU/ml E. coli", "text": "(§1) Since thioredoxin reductases are widely distributed in eukaryotes and prokaryotic cells, there is a possibility that thioredoxin reductases from other microbes may cross-react with this assay to give a false positive result. […] This high NTS activity is presumed to be useful for Mycoplasma for the detoxification of reactive oxygen compounds, since the Mollicutes have simple genomes that lack the genes encoding enzymes such as catalase, peroxidase and […] that function to remove H2O2 and other oxygen radicals in other bacteria (Gibson, D. G., et al., Complete chemical synthesis, assembly, and cloning of a Mycoplasma genitalium genome. Science. 319(5867):1215-1220 (2008))."}, "S. aureus": {"system": "S. aureus", "experiment": "Thioredoxin reductase cross-reactivity with DTNB substrate", "format": "biochemical", "details": "up to 10^6 CFU/ml S. aureus", "text": "as §1"}, "M. hyorhinis [3]": {"system": "M. hyorhinis", "experiment": "Effect of divalent cations on Vmax, MCA-Leu substrate", "format": "biochemical, Mycoplasma hyorhinis", "parameters": "unit not given here", "details": "1 mM additive in place of 1 mM MgCl2", "protocol": "(§2) A presently preferred substrate is leu-MCA that had significant activity above the uninfected media control under the gentle conditions used to lyse the Mycoplasma (0.05% HECAMEG, 1 mM MgCl2, 100 mM NaCl, 40 mM Tris buffer, pH 8.5). The MCA-Leu substrate produces a signal level of 500 mOD in 30 minutes with M. hyorhinis, while M. hyorhinis has weak activity for arg-MCA.\nDetergent lysis of M. hyorhinis with HECAMEG gives better signal than sonication. Manganese or magnesium also improves the signal to noise ratio."}, "Mycoplasma cells": {"system": "Mycoplasma cells", "experiment": "Detergent lysis buffer procedure for trxB assay", "format": "cell-based", "protocol": "A detergent lysis buffer procedure that would hydrolyze the simple Mycoplasma cell membranes but not lyse the tissue culture cells was needed. Methyl-6-O—(N-heptylcarbamoyl)-α-D-glucopyranoside (HECAMEG) is a preferred detergent. […] As expected, 0.1 mM NADPH enhanced the activity of trxB (FIG. 12). As a substrate for trxB, Bodipy® FL L-cystine provided a signal that was 7500 times that of the buffer control, however this signal was an artifact of the digitonin."}, "[4]": {"system": "lon ATP-dependent protease", "experiment": "Assays for proteolytic activity, fluorogenic MCA substrate (Table 5)", "format": "biochemical, Mycoplasma hyorhinis", "parameters": "unit not given beside the values", "text": "(§3) Further studies examined the suitability of the […] for use in a diagnostic test. These studies used several fluorogenic substrates consisting of small chain amino acids coupled to a methoxy coumarin fluorescent probe (MCA, (7-methoxycoumarin-4-yl)acetyl). The test conditions were “buffer,” phosphate-buffered saline (PBS), “uninfected medium,” medium from cell cultures not infected with Mycoplasma, “infected medium,” medium from cell cultures infected with Mycoplasma, and a Mycoplasma positive control derived from a Mycoplasma culture. In each case the uninfected media control had substantial background proteolytic activity, with pepA being the most candidate with a signal-to-noise ratio (S/N) of about 2, where S/N=(Vmax infected medium)/(Vmax uninfected medium)."}, "M. hyorhinis [5]": {"system": "M. hyorhinis", "experiment": "Vmax measured using MCA labeled substrates with gentle HECAMEG lysis", "format": "biochemical, Mycoplasma hyorhinis", "parameters": "Vmax: unit not given here", "protocol": "as §2"}, "[6]": {"system": "pepA Leucine aminopeptidase", "experiment": "Assays for proteolytic activity, fluorogenic MCA substrate (Table 5)", "format": "biochemical, Mycoplasma hyorhinis", "text": "as §3"}, "[7]": {"system": "map Methionine aminopeptidase", "experiment": "Assays for proteolytic activity, fluorogenic MCA substrate (Table 5)", "format": "biochemical, Mycoplasma hyorhinis", "parameters": "unit not given beside the values", "text": "as §3"}}, "note": "“Also recorded” adds a separate entry of the source. Starred links: 1 amine or outer side, 2 acyl side, 3 side chain; linkers in the order of their positions; H or OH if unused. Residues, ends and D or L forms follow the SMILES beside them. *: point of attachment. Glutaryl = O=C(CCCC(=O)[*:2])[*:1]; AMC = Cc1cc(=O)oc2cc(N*)ccc12", "data": [{"compound": "Cc1cc(C)n2c1C=C1C=CC(CCC(=O)N[C@@H](CSSC[C@H](NC(=O)CCC3=[N+]4C(=Cc5c(C)cc(C)n5[B-]4(F)F)C=C3)C(=O)O)C(=O)O)=[N+]1[B-]2(F)F", "note": "[Bodipy® FL L-cystine, BODIPY®FL L-cystine]", "values": [{"measurement": "signal relative to buffer control", "setting": "[1]; signal was an artifact of the digitonin", "result": 7500, "unit": "times"}]}, {"compound": "CN(C)c1ccc(N=Nc2ccc(C(=O)O)cc2)cc1", "note": "[DABCYL, 4-((4-(dimethylamino)phenyl)azo)benzoic acid]", "values": [{"measurement": "decolorization", "setting": "[2]", "result": "completely decolorized"}]}, {"compound": "CN(C)c1ccc(N=Nc2ccc(SSCCC(=O)NCc3c(O)c(F)cc4c(-c5ccccc5C(=O)O)c5cc(F)c(=O)cc-5oc34)nc2)cc1", "note": "[DFDMAP fluorescein, 2′,7′-difluoro-4′-(2-(5-((dimethylaminophenyl)azo)pyridyl)dithiopropionylaminomethyl)fluorescein]", "values": [{"measurement": "detection level", "setting": "[1]; at 10^7-10^8 CFU/ml", "result": "10,000-20,000 RFU"}]}, {"compound": "O=C(O)c1cc(SSc2ccc([N+](=O)[O-])c(C(=O)O)c2)ccc1[N+](=O)[O-]", "note": "[DTNB, 5,5′-Dithio-bis-(2-nitrobenzoic acid)]", "values": [{"measurement": "hydrolysis / thioredoxin reductase activity", "setting": "E. coli", "result": "no significant activity; also recorded: no appreciable hydrolysis"}, {"measurement": "hydrolysis / thioredoxin reductase activity", "setting": "S. aureus", "result": "no significant activity; also recorded: no appreciable hydrolysis"}]}, {"compound": "O=C(O)CN(CCN(CC(=O)O)CC(=O)O)CC(=O)O", "note": "[EDTA]", "values": [{"measurement": "Vmax, MCA-Leu Substrate", "setting": "M. hyorhinis [3]; Buffer", "result": 0}, {"measurement": "Vmax, MCA-Leu Substrate", "setting": "M. hyorhinis [3]; Infected", "result": 45241}, {"measurement": "Vmax, MCA-Leu Substrate", "setting": "M. hyorhinis [3]; Medium", "result": 1710}, {"measurement": "Vmax, MCA-Leu Substrate", "setting": "M. hyorhinis [3]; Uninfected", "result": 3873}]}, {"compound": "CCCCCCCNC(=O)OC[C@H]1O[C@H](OC)[C@H](O)[C@@H](O)[C@@H]1O", "note": "[HECAMEG, Methyl-6-O—(N-heptylcarbamoyl)-α-D-glucopyranoside]", "values": [{"measurement": "concentration sufficient to lyse Mycoplasma cells while not disrupting the membranes of the cultured cells", "setting": "Mycoplasma cells", "result": 0.5, "unit": "%"}]}, {"compound": "O=S(=O)([O-])[O-].[Mg+2]", "note": "[MgSO4]", "values": [{"measurement": "Vmax, MCA-Leu Substrate", "setting": "M. hyorhinis [3]; Buffer", "result": 483}, {"measurement": "Vmax, MCA-Leu Substrate", "setting": "M. hyorhinis [3]; Infected", "result": 90365}, {"measurement": "Vmax, MCA-Leu Substrate", "setting": "M. hyorhinis [3]; Uninfected", "result": 5125}]}, {"compound": "[Cl][Mn][Cl]", "note": "[MnCl2]", "values": [{"measurement": "Vmax, MCA-Leu Substrate", "setting": "M. hyorhinis [3]; Medium", "result": 1703}]}, {"compound": "CCN(Cc1cccc(S(=O)(=O)[O-])c1)c1ccc(C(=C2C=CC(=[N+](CC)Cc3cccc(S(=O)(=O)[O-])c3)C=C2)c2ccccc2S(=O)(=O)[O-])cc1.[Na+].[Na+]", "note": "[blue dye number 1]", "values": [{"measurement": "decolorization", "setting": "[2]", "result": "not decolorized"}]}, {"compound": "Cc1cc(=O)oc2cc(NC(=O)[C@H](Cc3ccccc3)NC(=O)[C@H](C)NC(=O)[C@H](C)NC(=O)CCCC(=O)O)ccc12", "note": "[glt-ala-ala-phe-MCA] (Glutaryl-Ala-Ala-Phe-{AMC})", "values": [{"measurement": "Vmax", "setting": "[4]; Buffer (PBS)", "result": 55.8}, {"measurement": "Vmax", "setting": "[4]; Infected medium", "result": 1802}, {"measurement": "Vmax", "setting": "[4]; Mycoplasma positive control", "result": 3354}, {"measurement": "Vmax", "setting": "[4]; Uninfected medium", "result": 1460}]}, {"compound": "Nc1c(N=Nc2ccc(S(=O)(=O)CCOS(=O)(=O)[O-])cc2)c(S(=O)(=O)[O-])cc2cc(S(=O)(=O)[O-])c(N=Nc3ccc(S(=O)(=O)CCOS(=O)(=O)[O-])cc3)c(O)c12.[Na+].[Na+].[Na+].[Na+]", "note": "[reactive black 5]", "values": [{"measurement": "decolorization", "setting": "[2]", "result": "completely decolorized"}]}, {"compound": "arginine-(7-methoxycoumarin-4-yl)acetyl [arg-MCA]", "values": [{"measurement": "activity of M. hyorhinis for substrate", "setting": "M. hyorhinis [5]; 0.05% HECAMEG, 1 mM MgCl2, 100 mM NaCl, 40 mM Tris buffer, pH 8.5", "result": "weak activity"}, {"measurement": "Vmax", "setting": "M. hyorhinis [5]; Buffer", "result": 0}, {"measurement": "Vmax", "setting": "M. hyorhinis [5]; Infected medium", "result": 60903}, {"measurement": "Vmax", "setting": "M. hyorhinis [5]; Medium", "result": 676}, {"measurement": "Vmax", "setting": "M. hyorhinis [5]; Uninfected medium", "result": 29034}]}, {"compound": "leucine-(7-methoxycoumarin-4-yl)acetyl [leu-MCA]", "values": [{"measurement": "Vmax", "setting": "[6]; Buffer (PBS)", "result": 2874}, {"measurement": "Vmax", "setting": "[6]; Infected medium", "result": 906}, {"measurement": "Vmax", "setting": "[6]; Mycoplasma positive control", "result": 522}, {"measurement": "Vmax", "setting": "[6]; Uninfected medium", "result": 454}, {"measurement": "Vmax", "setting": "M. hyorhinis [5]; Buffer", "result": 236}, {"measurement": "Vmax", "setting": "M. hyorhinis [5]; Infected medium", "result": 415190}, {"measurement": "Vmax", "setting": "M. hyorhinis [5]; Medium", "result": 2118}, {"measurement": "Vmax", "setting": "M. hyorhinis [5]; Uninfected medium", "result": 17422}, {"measurement": "signal level", "setting": "M. hyorhinis [5]; in 30 minutes with M. hyorhinis", "result": 500, "unit": "mOD"}]}, {"compound": "methionine-(7-methoxycoumarin-4-yl)acetyl [met-MCA]", "values": [{"measurement": "Vmax", "setting": "[7]; Buffer (PBS)", "result": 19.4}, {"measurement": "Vmax", "setting": "[7]; Infected medium", "result": 627}, {"measurement": "Vmax", "setting": "[7]; Mycoplasma positive control", "result": 733}, {"measurement": "Vmax", "setting": "[7]; Uninfected medium", "result": 430}, {"measurement": "Vmax", "setting": "M. hyorhinis [5]; Buffer", "result": 125}, {"measurement": "Vmax", "setting": "M. hyorhinis [5]; Infected medium", "result": 302082}, {"measurement": "Vmax", "setting": "M. hyorhinis [5]; Medium", "result": 1731}, {"measurement": "Vmax", "setting": "M. hyorhinis [5]; Uninfected medium", "result": 19004}]}]}
